# “Also recorded” adds a separate entry of the source. Where two headings read alike, the source gives them in different places.
# What was measured:
# [1] = Cytotoxicity, inhibition of CEM/TK– cell proliferation; assay type: cell-based; settings: human, CEM/TK– cells (CD4+ T-cells), read-out: toxicity CC50
# [2] = target: T1, human DNA polymerase β (Homo sapiens, UniProt P06746); assay: Primer extension assay using human DNA polymerase β; assay type: biochemical; settings: 60 min, 2 U, 37 °C
# T1 construct: purchased Chimerx
# Excerpt: Encouraged by the previously obtained results that γ-phosphate-modified-d4TDPs 3, γ-monoalkylated d4TTP derivatives as well as d4TDP were accepted as substrates by HIV-RT,[49],[50],[55],[59]−[61] δ-dialkylated d4T tetraphosphate analogues 4,5, δ-monoalkylated d4T tetraphosphate analogues 20 and 24 and d4T4P were investigated in primer extension assays in the presence of HIV-RT or the three different human DNA polymerases α, β and γ. D4TTP (for the compounds 4–9) and the natural thymidine triphosphate (TTP) were used as reference compounds.
# Figure 6 Primer extension assay using HIV-RT (A), human polymerases α (B), β (C), and γ (D). (Figure 6A). Primer extension assay using HIV-RT (30 min, 6U). Lane 1: (+) dATP, dCTP, dGTP, and TTP with HIV-RT. Lane 2: (−) dATP, dCTP, dGTP, and TTP without HIV-RT. Lane 3: TTP. […] Lane 5: δ-(C4; C18)-d4T4P 4d. […] Lane 7: δ-(C18)-d4T4P 20. Lane 8: δ-C-(C18)-d4T4P 24. Lane 9: d4T4P. Lane 10: d4TTP. Lane 11: d4TDP. HIV-RT assay reaction conditions: 50 mM Tris–HCl (pH 8.6), 10 mM MgCl2, 40 mM KCl, 250 μM dNTPs, HIV-RT (6 U), 0.20 μM DNA hybrid, primer-template-hybrid 0.32 mM in a reaction volume of 10 μL, incubated at 37 °C for 0.5 h, 80 °C for 7 min. Primer extension assays: 50 mA, 45 w for 4 h. (Figure 6B). For human DNA polymerase α assay (60 min, 2 U): Lane 1: (+) dATP, dCTP, dGTP, and TTP with human polymerase α. Lane 2: (−) dATP, dCTP, dGTP, and TTP without human polymerase α. Lane 3: TTP. […] Lane 5: δ-(C4; C18)-d4T4P 4d. […] Lane 7: δ-(C18)-d4T4P 20. Lane 8: δ-C-(C18)-d4T4P 24. Lane 9: d4T4P. Lane 10: d4TTP. Human DNA polymerase α assay conditions: 60 mM Tris–HCl (pH 8), 5 mM Mg(OAc)2, 100 mM KCl, 1.0 mM dithiothreitol, 0.1 mM spermine, 0.01% (w/v) bovine serum albumin, 250 μM dNTPs, 2 U human polymerase α, 0.20 μM DNA hybrid, and primer-template-hybrid 0.32 mM in a reaction volume of 10 μL, incubated at 37 °C for 1 h, 80 °C for 7 min. Primer extension assays: 50 mA, 45 w for 3 h. (Figure 6C). For human DNA polymerase β assay (60 min, 2 U): Lane 1: (+) dATP, dCTP, dGTP, and TTP with human polymerase β. Lane 2: (−) dATP, dCTP, dGTP, and TTP without human polymerase β. Lane 3: TTP. […] Lane 5: δ-(C4; C18)-d4T4P 4d. […] Lane 7: δ-(C18)-d4T4P 20. Lane 8: δ-C-(C18)-d4T4P 24. Lane 9: d4T4P. Lane 10: d4TTP. Human DNA polymerase β assay conditions: 50 mM Tris–HCl (pH 8.7), 10 mM Mg(OAc)2, 100 mM KCl, 1.0 mM dithiothreitol, 0.1 mM spermine, 0.01% (w/v) bovine serum albumin, 15% glycerol, 250 μM dNTPs, 2 U human DNA polymerase β, 0.20 μM DNA hybrid, and primer-template-hybrid 0.32 mM in a reaction volume of 10 μL, incubated at 37 °C for 1 h, 80 °C for 7 min. Primer extension assays: 50 mA, 45 w for 3 h. (Figure 6D), For the human DNA polymerase γ assay (120 min, 2 U): Lane 1: (+) dATP, dCTP, dGTP, and TTP with human polymerase γ. Lane 2: (−) dATP, dCTP, dGTP, and TTP without human polymerase γ. Lane 3: TTP. […] Lane 5: δ-(C4; C18)-d4T4P 4d. […] Lane 7: δ-(C18)-d4T4P 20. Lane 8: δ-C-(C18)-d4T4P 24. Lane 9: d4T4P. Lane 10: d4TTP. Human polymerase γ assay conditions: 60 mM Tris–HCl (pH 8), 5 mM Mg(OAc)2, 1.0 mM dithiothreitol, 0.1 mM spermine, 0.01% (w/v) bovine serum albumin, 250 μM dNTPs, 2 U human polymerase γ, 0.5 μM MnCl2, 0.20 μM DNA hybrid, primer-template-hybrid 0.32 mM in a reaction volume of 10 μL, incubated at 37 °C for 2 h, 80 °C for 7 min. Primer extension assays: 50 mA, 45 w for 3 h.
# HIV-RT and human polymerases α, β, and γ were bought from Roboklon and Chimerx. The fluorescent-labeled primer and template were obtained from Metabion. […]
# [3] = Hydrolysis in CEM/0 cell extracts; assay type: in vitro ADME; settings: human
# Protocol: Next, TetraPPPPro-nucleotides 4–9 were incubated in human CD4^+ T-lymphocyte CEM/0 cell extracts to study their stability and identify the hydrolysis products.
# CEM cells were grown in RPMI-1640-based cell culture medium to a final density of ∼3 × 10^6 cells/mL. Cells were centrifuged for 10 min at 1250 rpm at 4 °C and washed twice with cold PBS, and the pellet was resuspended at 10^8 cells/mL and sonicated (Hielscher Ultrasound Techn., 100% amplitude, 3·times for 10 s) to destroy cell integrity. Next, the resulting cell suspension was centrifuged at 10,000 rpm to remove cell debris. Finally, the supernatant was divided into aliquots and frozen at −80 °C.
# 6.0 mM hydrolysis solutions of compounds 4–9 were prepared from 21 μL of 50 mM DMSO stock solutions and 154 μL of DMSO. Two different samples, including 10 μL of water and 10 μL of 6.0 mM hydrolysis solution, were prepared in 2 mL Eppendorf vials. Next, 50 μL of human CEM cell extracts or 50 μL of human citrate plasma were added to the mixture, the reaction was started, and the mixture was incubated at 37 °C for different time periods. The reactions were stopped by the addition of 150 μL of MeOH. The resulting suspension was kept on ice for 5 min, followed by defrosting and centrifugation at 14,000 rpm (Heraeus, Biofuge Pico) for 22 min. The supernatants (80 or 60 μL) were directly injected into HPLC. The calculation of t1/2 was performed analogously to that for the chemical hydrolysis studies.
# [4] = 37 °C, read-out: CEM/0 cell extracts t1/2 (converted)
Compound,CC50 [1],substrate for human DNA polymerase β (primer extension) [2],"half-life at 0.86 mM [3, 4]","half-life at 0.86 mM ([3]; dephosphorylation, read-out: t1/2 in CEM/0 cell extracts)"
"CCCCCCCCCCCCCCCCCCOP(=O)(OCCCC)OP(=O)(O)OP(=O)(O)OP(=O)(O)OC[C@@H]1C=C[C@H](n2cc(C)c(=O)[nH]c2=O)O1 (some centres unmarked) [4d, δ-(Alkyl-C4; alkyl-C18)-d4T4P]",46.8 µM,not accepted,> 20 h,–
"CCCCCCCCCCCCCCCCCCP(=O)(OCCCC)OP(=O)(O)OP(=O)(O)OP(=O)(O)OC[C@@H]1C=C[C@H](n2cc(C)c(=O)[nH]c2=O)O1 (some centres unmarked) [5a, δ-(Alkyl-C4)-δ-C-(alkyl-C18)-d4T4P]",49.8 µM,No incorporation of d4TMP,> 20 h,–
"CCCCCCCCCCCCCCCCCCOP(=O)(O)OP(=O)(O)OP(=O)(O)OP(=O)(O)OC[C@@H]1C=C[C@H](n2cc(C)c(=O)[nH]c2=O)O1 [compound 20, δ-(Alkyl-C18)-d4T4P]",> 100 µM,–,> 8 h,–
"CCCCCCCCCCCCCCCCCCP(=O)(O)OP(=O)(O)OP(=O)(O)OP(=O)(O)OC[C@@H]1C=C[C@H](n2cc(C)c(=O)[nH]c2=O)O1 [compound 24, δ-C-(Alkyl-C18)-d4T4P]",40.1 µM,–,> 30 h,–
"Cc1cn([C@H]2C=C[C@@H](COP(=O)(O)OP(=O)(O)OP(=O)(O)OP(=O)(O)O)O2)c(=O)[nH]c1=O [d4T4P, 2′,3′-didehydro-2′,3′-dideoxythymidine-5′-tetraphosphate]",> 100 µM,efficiently incorporated; also recorded: substrate,0.37 h,0.367 h

# Reference: publication PMC10895676, “Antiviral Activity of Lipophilic Nucleoside Tetraphosphate Compounds” (Journal of Medicinal Chemistry, 2024)
